# Measured values: patent US20230390319A1, “INTERFERON GENE STIMULATOR COMPOSITION COMPRISING INDOLIZINE DERIVATIVE AS ACTIVE INGREDIENT” (AJOU UNIVERSITY INDUSTRY-ACADEMIC COOPERATION FOUNDATION, priority 2020, published 2023)
# Entries after “also recorded” stand apart in the source; their conditions may differ.
# Legend:
# [1] = test system: THP-1 cells; assay: Cell viability assay (CellTiter Clo) in THP-1 cells; format: cell-based, Human
# Description: Human monocytic THP-1 wild-type (WT) and STING knockout (KO) cell lines were obtained from InvivoGen. Cells were cultured in 1×RPMI 1640 medium containing 10% fetal bovine serum (FBS, Hyclone), 2.05 mM L-glutamine (Hyclone) and 1% penicillin (Corning) in a humidified incubator at 37° C. under 5% CO2.
# Cells were analyzed using CellTiter Clo (CTG, Promega). […] was measured using a TECAN micro plate reader SPARK. Results were normalized to DMSO control.
# THP-1 cells were co-treated with each of 86 indolizine derivatives and a very small amount of cGAMP (1 μg/ml), the immune response of the THP-1 cells was examined by ISRE reporter assay, and the cytotoxicity of co-treatment was also evaluated (Table 1). All results were compared by normalization to the reporter assay results obtained by treatment with cGAMP alone. […] Thus, Compound 42 was used in subsequent experiments.
# [2] = test system: human IFN-β and IP-10; assay: ELISA of cytokine levels in THP-1 cell supernatants; format: cell-based; details: FIG. 3
# Description: Cytokine levels were determined by ELISA analysis. THP-1 cells were placed in a 96-well U bottom plate and tested after 24 hours of treatment with each compound and cGAMP (1 μg/ml). After culturing, cell supernatants were collected and human IFN-β and IP-10 levels were determined by ELISA analysis.
# [3] = test system: IFNB, CXCL10, IFIT3, ISG15, IRF7 and OAS1; assay: Gene expression analysis by real-time quantitative PCR in THP-1 cells; format: cell-based, Human; details: with cGAMP (1 μg/ml), 6 hours, FIG. 4
# Description: To confirm gene expression, THP-1 cells were placed in a 24-well plate (SPL) and treated with the compound of the present invention and cGAMP (1 μg/ml) for 6 hours. After culturing, RNA was extracted from the cells using NucleoSpin RNA Plus (MN). mRNA expression levels of IFNB, CXCL10, IFIT3, ISG15, IRF7 and OAS1 were measured by real-time qPCR (CFX96 Real-Time PCR Detection System, Bio-Rad) using IQ SYBR Green Supermix (Bio-Rad). GAPDH was used as a housekeeping gene to normalize cytokine mRNA levels.
# [4] = test system: IRF3, STAT1; assay: Western blot analysis of TBK, IRF3 and STAT1 activity; format: cell-based; details: induced by cGAMP, FIG. 5
# Description: Cells were cultured and lysed in RIPA buffer containing a protease and phosphatase inhibitor cocktail (Thermo Fisher Scientific) and benzonase nuclease (Sigma). After centrifugation, the supernatant was collected, and the amount of protein was measured using a BCA protein assay kit (Thermo Fisher Scientific). Cell lysates were analyzed by SDS-PAGE using an acrylamide gel. After SDS-PAGE, proteins were transferred to a PVDF membrane, blocked with 5% BSA, and then washed with TBST. The membrane was incubated with primary antibodies (anti-STING, anti-pSTING, anti-TBK, anti-pTBK, anti-IRF3, anti-pIRF3, anti-STAT1, anti-pSTAT1, and anti-actin) overnight at 4° C. After washing with TBST, the membrane was treated with HRP-conjugated secondary antibodies at room temperature for 1 hour. The membrane was washed with TBST and treated with ECL solution (Thermo Fisher Scientific). Chemical fluorescence images were taken with ChemiDOC (Bio-Rad).
# [5] = test system: STING; assay: Activity comparison with STING pathway-activating therapeutic agent MV658; format: cell-based; details: compared with ENPP inhibitor MV658, FIG. 6
# [6] = test system: 4T1 tumor cells; assay: In vivo anticancer activity, 4T1 tumor in BALB/c mice; details: Compound 42 20 mg/kg intravenous once daily + cGAMP 2 μg intratumoral every 4 days, compared to cGAMP alone, FIG. 7
# Description: Eight-week-old female BALB/c mice (DBL) were used for experiments and inoculated subcutaneously with 0.5×10^6 4T1 tumor cells using PBS as the vehicle on the right flank. Following tumor implantation, mice were randomized into treatment groups, each consisting of N=4 (vehicle N=1). On day 5 after tumor cell injection, when the tumor volume reached about 100 mm^3, Compound 42 or vehicle was administrated by intravenous injection (20 mg/kg) or vehicle (5% DMSO, 5% Tween 80 in PBS). 2′3′-cGAMP (InvivoGen) was injected by intratumoral injection (2 μg in PBS). Compound 42 was injected once daily, and cGAMP was injected once every 4 days. Tumor and body weight measurements were performed using digital calipers and a weigh scale, respectively. Tumor volume was estimated using the following Equation 1:
# Tumor volume=(length×width^2)/2 [Equation 1]
# Mice were euthanized when the tumor volume reached about 2,000 mm^3.
smiles,measurement,setting,value
CC(=O)c1ccc(-c2cc(C(=O)c3ccc(C(F)(F)F)cc3)n3ccccc23)cc1 [Compound 42],Normalized cell viability,"[1]; THP-1 cells, 20 μM of each compound, co-treated with cGAMP (1 μg/ml)",1.20
same,cytotoxicity of co-treatment,[1]; co-treatment with cGAMP,no cytotoxicity; also recorded: did not cause toxicity
same,"cytokine secretion (IFN-β, IP-10)","[2]; co-treatment with cGAMP compared to cGAMP alone, concentration-dependent",increased cytokine secretion very effectively
same,"immune response, compound alone",[2]; treatment with Compound 42 alone,induced no immune response
same,"cGAMP-induced expression of interferon-stimulated genes (IFN-beta, IP-10, ISG15, IRF7, IFIT3, OAS1)",[3],significantly increased
same,phosphorylation of IRF3 and STAT1,[4],increased phosphorylation of IRF3 and phosphorylation of STAT1
same,degree of STING-dependent immune response activation,[5],better activity
same,tumor volume,[6],effectively reduced the tumor volume
